{"source": "patent US20050037097A1", "about": "“PYRUVATE ENRICHED ONION EXTRACT” (priority 2003, published 2005)", "key": {"[1]": {"assay": "Inhibition (%) of ABTS radical generation", "format": "biochemical", "conditions": "concentration was 0.005 mg/mL (footnote)", "procedure": "All reagents used in this assay were prepared in phosphate buffered saline (PBS, 10 mM, pH 7.4). Sample solutions were prepared in PBS.\n[…] Reaction was triggered by the addition of 120 μL of 10 mM hydrogen peroxide. Absorbance data of the reaction mixture were recorded after 10 min using a spectrophotometer set at 734 nm. Quercetin was used as a reference antioxidant."}, "[2]": {"assay": "Total reducing power (pre-formed ABTS radical)", "format": "biochemical", "conditions": "concentration was 0.005 mg/mL (footnote)", "procedure": "ABTS radical was generated by mixing 5 mL of an aqueous ABTS solution (7 mM) and 88 μL of a potassium persulfate solution (140 mM), followed by the standing in the dark for 6 h. This stock solution (1.1 mL) was diluted to 90 mL with PBS (pH 7.4) and the absorbance adjusted to 0.83. […] Absorbance at 734 nm was measured after 10 min. Quercetin was used as a reference antioxidant. Total reducing power (TRP, %) was calculated using the following equations: […]+PBS(%)=[(Abs0 min-Abs10 min)/Abs0 min]*100 TRPSample=([…]"}, "[3]": {"assay": "Oxygen radical absorbance capacity (ORAC), β-carotene retention", "format": "biochemical", "conditions": "concentration was 0.005 mg/mL (footnote); PBS control 28", "method": "A solution of 2,2′-azobis-(2-amidinopropane) dihydrochloride (AAPH, 0.5 M) was prepared in degassed distilled water and a β-carotene solution was prepared by centrifuging 10 mg of β-carotene in 10 mL of acetone followed by a one-fold dilution of the supernatant with the same solvent. β-carotene (60 μL) and 0.6% (w/v) phosphate buffered Tween 20 containing 0.3% (w/v) of linoleic acid (120 μL) were mixed with 935 μL of PBS in a quartz cuvette and incubated for 2 min at 50° C. 10 μL of sample solution (final assay concentration of 454 μg/mL) and AAPH (25 μL) were added into the cuvette and the reaction was monitored for 10 min using a spectrophotometer set at 452 nm. Quercetin was used as a reference antioxidant. Cuvette was maintained at 50° C. all times except when the measurement is being taken. Percentage β-carotene retention was calculated using the following equation: % β-carotene retention=100−[(Abs0 min−Abs5 min)*100 Abs0 min]"}, "[4]": {"assay": "Stability determination of pyruvate (pyruvate loss with or without hydrogen peroxide)", "format": "physicochemical"}}}
{"compound": "O=c1c(O)c(-c2ccc(O)c(O)c2)oc2cc(O)cc(O)c12", "note": "[Quercetin]", "values": [{"measurement": "% inhibition of ABTS radical generation", "setting": "[1]", "value": 23, "unit": "%"}, {"measurement": "% TRP (total reducing power)", "setting": "[2]", "value": 30, "unit": "%"}, {"measurement": "% TRP (ORAC in terms of β-Carotene retention)", "setting": "[3]", "value": 55, "unit": "%"}]}
{"compound": "CC(=O)C(=O)O", "note": "[pyruvic acid]", "values": [{"measurement": "pyruvate loss", "setting": "[4]; with added hydrogen peroxide", "value": 11, "unit": "%"}, {"measurement": "pyruvate loss", "setting": "[4]; without added hydrogen peroxide", "value": 26, "unit": "%"}]}
